Tests used:
[1] = tested on: E2A-PBX transformed cells; test: In vitro drug treatment of primary murine hematopoietic cells transformed by E2A-PBX (RTTA); format: cell-based, mouse
Procedure: Transduction using concentrated viral supernatant expressing the oncogene of interest was carried out by centrifugation (spinoculation) at 800 g at 32° C. for 2 hours in the presence of 5 μg ml^-1 polybrene (Sigma-Aldrich). Cells were subsequently plated in 1% methylcellulose medium ([…]; Stem Cell Technologies) containing 20 ngml^-1 SCF, 10 ngml^-1 IL-3, 10 ngml^-1 IL-6 and 10 ngml^-1 granulocyte macrophage colony-stimulating factor (GM-CSF) and appropriate selection antibiotic. Colonies were counted after 7 days of culture and replated every 6-7 days at 5×103-1.5×10^4 cell density. Re-plating was performed weekly to generate primary cell lines for further analysis. After the third or fourth round of plating, cells were cultured in R20/20 medium (RPMI 1640, 20% FCS, 20% WEHI-conditioned medium, 2 mM L-glutamine, 100 U/ml penicillin, and 100 μg/ml streptomycin) supplemented with 20 ngml^-1 stem cell factor (SCF), 10 ngml^-1 interleukin (IL)-3, and 10 ngml^-1 IL-6 to establish cell lines. All recombinant murine cytokines were from PeprotechEC. […] Colonies were scored 6-7 days after plating. For other in vitro studies, mouse leukemic cells and primary AML cell lines were subjected to continuously Olaparib (1 μM) or LiCl (8 mM) treatment in liquid culture for whole duration as indicated in the figures or figure legends. For human leukemic cell lines, experiments were performed as described above with 5 μM Olaparib. […] Cells were counted in at least 5 fields for each slide, for a total of over 100 cells. The percentage of senescent cells was calculated by the percentage of the number of blue cell in the field. […] Cells were counted in at least 5 fields for each slide, for a total of over 100 cells per condition. […] Cells were counted in at least 5 fields for each slide, for a total of over 100 cells per condition. […] Cells were then washed in PBS and the differentiated cells were indicated by the deposition of dark blue insoluble formazan (NBT positive cells) and the percentage of differentiated cells were counted under microscopy. At least 200 cells were counted in most of the cases.

[2] = tested on: MLL-AF9 leukemic cells (wild type); test: C57Bl/6 mice transplanted with wild type MLL-AF9 leukemic cells, Olaparib treatment; format: in vivo, mouse; conditions: Olaparib 50 mg/kg daily
Procedure: For Hoxa9 KO studies, we intravenously injected […] MLL-AF9 leukemic cells (wild type or Hoxa9−/− background) together with 2×10^5 bone marrow rescue cells into lethally irradiated C57Bl/6 mice (2 doses of irradiation 550 RADS each) for disease development. For drug studies, the control cohort received vehicle (10% 2-Hydroxpropyl-beta-cyclodextrin, HBC, Sigma-Aldrich) and the PARPi treatment group received daily Olaparib 50 mg/kg in 10% HBC for two-four weeks.

[3] = C57Bl6 mice succumbed with MLL-AF9 wild-type driven leukemia

O=C(c1cc(Cc2n[nH]c(=O)c3ccccc23)ccc1F)N1CCN(C(=O)C2CC2)CC1 [Olaparib, 4-[(3-[(4-cyclopropylcarbonyl)piperazin-4-yl]carbonyl)-4-fluorophenyl]methyl(2H)-phthalazin-1-one]
impact on colony forming ability ([1]; 1 uM Olaparib, methylcellulose 7 days): little impact
differentiation, G1 arrest, senescence, apoptosis effects ([1]; PARPi treatment): none of these effects were observed
Rad51 recruitment to DNA damage sites (RAD51 foci) ([1]; PARPi treatment for 6 hours): able to form RAD51 foci
BM Engraftment (%) [2, 3]: 93.30 ± 9.257%
Disease Latency (days; median) [2, 3]: 34 days
Hematopoietic Liver Engraftment (%) [2, 3]: 93.16 ± 6.838%
Hematopoietic Spleen Engraftment (%) [2, 3]: 86.85 ± 13.12%
Liver [2, 3]: 4.204 ± 1.425 g
Spleen [2, 3]: 0.9309 ± 0.3767 g
effect on mice transplanted with wild type MLL-AF9 leukemic cells (survival) [2]: did not have any significant effect
